Our source for the IC50 values is patent US20140309265A1, “MACROCYCLIC COMPOUNDS FOR INHIBITION OF INHIBITORS OF APOPTOSIS” (Ensemble Therapeutics, priority 2011, published 2014).

Bounds are passed on as bounds.

For one assay, the target named is T1, His-BIR3 (241-356, XIAP) (Homo sapiens, UniProt P98170).
T1 construct: additions of His-BIR3 (241-356, XIAP), fluorescein labeled SMAC peptide
Nature of the assay: XIAP-BIR3/SMAC Homogeneous Time Resolved Fluorescence (HTRF) Assay. In kind it is binding. Particulars: Table 4. A general note: In TR-FRET formats the signal depends on donor and acceptor labels being close together.

In assay [1] the target is T2, His-BIR2-3 (125-356, C202A/C213G, XIAP) (Homo sapiens, UniProt P98170, C202A/C213G).
T2 construct: additions of His-BIR2-3 (125-356, C202A/C213G, XIAP), fluorescein labeled dimeric SMAC peptide
Nature of the assay: XIAP-BIR2-3 Dimeric SMAC Peptide Homogeneous Time Resolved Fluorescence (HTRF) Assay. The settings on record: XIAP BIR2-3, HTRF, Table 4. In kind it is binding.

For orientation: IC50 means the midpoint of a concentration-inhibition curve. A low value points to greater potency in that assay.

T2 sequence (P98170 125-356 C202A/C213G): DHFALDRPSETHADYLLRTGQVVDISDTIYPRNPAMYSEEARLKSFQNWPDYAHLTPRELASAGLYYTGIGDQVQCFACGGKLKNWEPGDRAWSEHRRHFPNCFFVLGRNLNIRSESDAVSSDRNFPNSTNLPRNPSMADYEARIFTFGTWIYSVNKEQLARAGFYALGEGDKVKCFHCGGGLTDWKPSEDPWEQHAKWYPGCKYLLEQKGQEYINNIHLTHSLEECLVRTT
T1 sequence (P98170 241-356): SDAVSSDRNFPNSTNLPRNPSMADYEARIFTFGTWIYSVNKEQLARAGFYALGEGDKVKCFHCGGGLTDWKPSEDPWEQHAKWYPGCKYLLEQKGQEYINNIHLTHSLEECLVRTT

For `CN[C@@H](C)C(=O)N[C@H](C(=O)N1C[C@@H]2C[C@H]1C(=O)N[C@@H](Cc1ccc3ccccc3c1)C(=O)N[C@H](C(=O)O)Cc1ccc(cc1)OCc1cn(nn1)[C@H]1C[C@@H](C(=O)N[C@@H](Cc3ccc4ccccc4c3)C(=O)N[C@H](C(=O)NCc3cc(F)c(OC)c(F)c3)Cc3ccc(cc3)OCc3cn2nn3)N(C(=O)[C@@H](NC(=O)[C@H](C)NC)C(C)(C)C)C1)C(C)(C)C` [Compound 1040], the IC50 against His-BIR3 (241-356, XIAP) is greater than 100 nM; in assay [1], greater than 10 nM.

Regarding `CN[C@@H](C)C(=O)N[C@H](C(=O)N1C[C@@H]2C[C@H]1C(=O)N[C@@H](Cc1ccc3ccccc3c1)C(=O)N[C@H](C(=O)O)Cc1ccc(cc1)OCc1cn(nn1)[C@H]1C[C@@H](C(=O)N[C@@H](Cc3ccc4ccccc4c3)C(=O)N[C@H](C(=O)NCc3cccc(-c4nnn[nH]4)c3)Cc3ccc(cc3)OCc3cn2nn3)N(C(=O)[C@@H](NC(=O)[C@H](C)NC)C(C)(C)C)C1)C(C)(C)C` [Compound 1025], the IC50 against His-BIR3 (241-356, XIAP) is less than 10 nM; in assay [1], 1 to 10 nM.

As for `CN[C@@H](C)C(=O)N[C@H](C(=O)N1C[C@@H]2C[C@H]1C(=O)N[C@@H](Cc1ccc3ccccc3c1)C(=O)N[C@H](C(=O)O)Cc1ccc(cc1)OCc1cn(nn1)[C@H]1C[C@@H](C(=O)N[C@@H](Cc3ccc4ccccc4c3)C(=O)N[C@H](C(=O)NCCCC(=O)O)Cc3ccc(cc3)OCc3cn2nn3)N(C(=O)[C@@H](NC(=O)[C@H](C)NC)C(C)(C)C)C1)C(C)(C)C` [Compound 1032], the IC50 against His-BIR3 (241-356, XIAP) is less than 10 nM; in assay [1], no more than 1 nM.

For `CN[C@@H](C)C(=O)N[C@H](C(=O)N1C[C@@H]2C[C@H]1C(=O)N[C@@H](Cc1ccc3ccccc3c1)C(=O)N[C@H](C(=O)O)Cc1ccc(cc1)OCc1cn(nn1)[C@H]1C[C@@H](C(=O)N[C@@H](Cc3ccc4ccccc4c3)C(=O)N[C@H](C(=O)O)Cc3ccc(cc3)OCCc3cn2nn3)N(C(=O)[C@@H](NC(=O)[C@H](C)NC)C(C)(C)C)C1)C(C)(C)C` [Compound 1017], the IC50 against His-BIR3 (241-356, XIAP) is less than 10 nM; in assay [1], no more than 1 nM.

On to `CN[C@@H](C)C(=O)N[C@H](C(=O)N1C[C@@H]2C[C@H]1C(=O)N[C@@H](Cc1ccc3ccccc3c1)C(=O)N[C@H](C(=O)O)Cc1ccc(cc1)OCc1cn(nn1)[C@H]1C[C@@H](C(=O)N[C@@H](Cc3ccc4ccccc4c3)C(=O)N[C@H](C(=O)NS(=O)(=O)CCCC(=O)O)Cc3ccc(cc3)OCc3cn2nn3)N(C(=O)[C@@H](NC(=O)[C@H](C)NC)C(C)(C)C)C1)C(C)(C)C` [Compound 1045], for which the IC50 on His-BIR3 (241-356, XIAP) is less than 10 nM; in assay [1], no more than 1 nM.

As for `CN[C@@H](C)C(=O)N[C@H](C(=O)N1C[C@@H]2C[C@H]1C(=O)N[C@@H](Cc1ccc3ccccc3c1)C(=O)N[C@H](C(=O)O)Cc1ccc(cc1)OCc1cn(nn1)[C@H]1C[C@@H](C(=O)N[C@@H](Cc3ccc4ccccc4c3)C(=O)N[C@H](C(=O)NCC[C@@H](O)C[C@@H](O)CC(=O)O)Cc3ccc(cc3)OCc3cn2nn3)N(C(=O)[C@@H](NC(=O)[C@H](C)NC)C(C)(C)C)C1)C(C)(C)C` [Compound 1044], the IC50 against His-BIR3 (241-356, XIAP) is less than 10 nM; in assay [1], 1 to 10 nM.

For `CN[C@@H](C)C(=O)NC(C(=O)N1C[C@@H]2C[C@H]1C(=O)N[C@@H](Cc1ccc3ccccc3c1)C(=O)N[C@H](c1nc(=O)o[nH]1)Cc1ccc(cc1)OCc1cn(nn1)[C@H]1C[C@@H](C(=O)N[C@@H](Cc3ccc4ccccc4c3)C(=O)N[C@H](C(=O)O)Cc3ccc(cc3)OCc3cn2nn3)N(C(=O)[C@@H](NC(=O)[C@H](C)NC)C(C)(C)C)C1)C(C)(C)C` (stereo partly drawn) [Compound 1047], the IC50 on His-BIR3 (241-356, XIAP) is less than 10 nM; in assay [1] it was no more than 1 nM.

As for `CN[C@@H](C)C(=O)N[C@H](C(=O)N1CCN2CCn3cc(nn3)C[C@@H](C(=O)O)NC(=O)[C@H](Cc3ccc4ccccc4c3)NC(=O)[C@@H]3CN(CCN3C(=O)[C@@H](NC(=O)[C@H](C)NC)C(C)(C)C)CCn3cc(nn3)C[C@@H](C(=O)O)NC(=O)[C@H](Cc3ccc4ccccc4c3)NC(=O)[C@@H]1C2)C(C)(C)C` [Compound 1050], the IC50 in assay [1] was greater than 10 nM.
